According to patent US6221670A, “Methods to identify β-amyloid reducing agents” (Scios Inc., priority 1997, dated 2001):
Where a SMILES comes first, the peptide text is derived from it. The star is where a group is joined. Cbz = O=C(OCc1ccccc1)*

Assays:
[1] = system: total β-amyloid production; details: cited from earlier work
[2] = toxicity in transgenic mouse hippocampal organotypic slice culture by visual inspection; type: cell-based, mice transgenic for β-APP751; details: 25 μM to 400 μM, not toxic until this concentration, read-out: concentration at which toxicity became apparent by visual inspection
Method: Assessment of β-amyloid inhibitor activity and toxicity. Cultures are observed visually approximately every other day. Prior to the commencement of compound testing, on day 18 in culture, a three day test period was initiated in which media was conditioned by the untreated cultures. This media was collected and assayed for β-amyloid 1-40 and 1-42 levels using sensitive ELISAs. Organotypic cultures were then washed with media twice, and incubated for a further 3 day conditioning period in media supplemented with 25 μM to 400 μM MDL 28170, a protease inhibitor shown to inhibit total β-amyloid production in cell culture with an IC50 of 100 μM. MDL 28170 was applied from 100×stock solutions prepared in DMSO. Control culture received only DMSO. After conditioned media was collected at […], organotypic cultures were washed with serum free media twice and incubated for an additional 24 hours in serum free media in the continued presence of MDL 28170. This conditioned media was assayed for lactate dehydrogenase (LDH) activity. LDH is a ubiquitous cytosolic enzyme released into conditioned media only by unhealthy cells and is an index of viability and toxicity. High levels of LDH activity in serum require measurements to be made in serum free conditioned media. […]

β-amyloid 1-40 = β-amyloid 1-40 secretion by transgenic mouse hippocampal organotypic slice culture (sandwich ELISA); type: cell-based; details: 72 h; 25 μM to 400 μM, 3-day conditioning period, FIG. 4; read-out: IC50 for β-amyloid production by transgenic mouse hippocampal organotypic slice culture
Method: Preparation of cultures. Ten day old mouse pups transgenic for the 751 amino acid isoform of human β-amyloid precursor protein (β-APP),programmed for neural expression by the neuron specific enolase promoter were used as tissue source for hippocampal organotypic slice cultures. Cultures were prepared as for rat brain slice organotypic cultures described in Example 1.
Preperation of cultures. Hippocampal organotypic slice cultures were prepared as described in example 2, from 10 day old mice transgenic for the 751 amino acid isoform of human β-amyloid precursor protein (β-APP), programmed for neural expression by the neuron specific enolase promoter and maintained in culture for 10 days.
Preparation of cultures. Hippocampal organotypic slice cultures are prepared from 10 day old mice transgenic for the 751 amino acid isoform of human β-amyloid precursor protein (β-APP), programmed for neural expression by the neuron specific enolase promoter as described in Example 2, and maintained in culture for 6 weeks.
Detailed description of FIG. 4. Hippocampal organotypic slice cultures were prepared from mice transgenic for β-APP751. […] Data points shown were calculated by first taking the mean of duplicate ELISA values for each well, and then calculating the mean of the values for the duplicate treatment wells. […]

[3] = toxicity in transgenic mouse hippocampal organotypic slice culture by LDH assay of serum free conditioned media; type: cell-based, mice transgenic for β-APP751; details: 25 μM to 400 μM, 3 days, then additional 24 hours in serum free media, not toxic until this concentration, read-out: concentration at which toxicity became apparent by LDH assay
Method: Detailed description of FIG. 4. Hippocampal organotypic slice cultures were prepared from mice transgenic for β-APP751. On day 21 in vitro, organotypic cultures were washed with media twice, and duplicate wells were incubated for a 3-day conditioning period in media supplemented with 25 μM to 400 μM MDL 28170, a protease inhibitor shown to inhibit total β-amyloid production in cell culture with an IC50 of 100 μM. MDL 28170 was applied from 100×stock solutions prepared in DMSO. Control culture received only DMSO. Conditioned media was collected at day 24 and assayed in duplicate for β-amyloid 1-40 using a sandwich ELISA. Organotypic cultures were washed with serum free media twice and incubated for an additional 24 hours in serum free media in the continued presence of MDL 28170. This conditioned media was assayed for lactate dehydrogenase (LDH) activity. LDH is a ubiquitous cytosolic enzyme released into conditioned media only by unhealthy cells and is an index of viability and toxicity. High levels of LDH activity in serum require measurements to be made in serum free conditioned media. Data points shown were calculated by first taking the mean of duplicate ELISA values for each well, and then calculating the mean of the values for the duplicate treatment wells.
Assessment of β-amyloid inhibitor activity and toxicity. Cultures are observed visually approximately every other day. […]

CC(C)[C@H](NC(=O)OCc1ccccc1)C(=O)N[C@H](C=O)Cc1ccccc1 [MDL 28170] (Cbz-Val-Phe-aldehyde)
IC50 ([1]; cell culture (monotypic cells), previously shown, read-out: IC50 for inhibition of total β-amyloid production in cell culture): 100 µM | reversibility of MDL activity on cultured monotypic cells ([1]; cultured monotypic cells): reversible | MCC [2]: 400 µM | IC50 (β-amyloid 1-40): 100 µM | MCC [3]: 400 µM
